As a reminder, the pIC50 is −log10 of the IC50, conventionally taken in molar units.

SMILES strings stand for the structures. pIC50: −log10 of the molar value. Numbered stars: 1 amine (or outer) side, 2 acyl side, 3 side chain; on linkers, the order of the positions; unused ones are H or OH. Bridge positions count the residues as written; N and C are the ends. Square brackets hold non-standard residues; d marks the D form. Peptide text beside a SMILES is read from it. * marks the point of attachment. hPhe(3-Cl-4-CF3) = N[C@@H](CCc1ccc(C(F)(F)F)c(Cl)c1)C(=O)O; NEtPhe(2-Cl) = CCN[C@@H](Cc1ccccc1Cl)C(=O)O; NMePhe(4-Me) = CN[C@@H](Cc1ccc(C)cc1)C(=O)O; X38 = CN1CCN(CCN(CC(=O)[*:2])[*:1])CC1; NMeCha = CN[C@@H](CC1CCCCC1)C(=O)O; NMeChg = CN[C@H](C(=O)O)C1CCCCC1; NMeI = CC[C@H](C)[C@H](NC)C(=O)O; NMeD = CN[C@@H](CC(=O)O)C(=O)O; NMeL = CN[C@@H](CC(C)C)C(=O)O; NMehSer = CN[C@@H](CCO)C(=O)O; NMeV = CN[C@H](C(=O)O)C(C)C; Morpholide = C1CN(*)CCO1; NMeA = CN[C@@H](C)C(=O)O; Piperidide = C1CCN(*)CC1; Ac5c = NC1(C(=O)O)CCCC1; Aze = O=C(O)[C@@H]1CCN1; Sar = CNCC(=O)O

Drawing on US20240148821A1, “PHARMACEUTICAL USE OF CYCLIC PEPTIDE COMPOUND” (CHUGAI SEIYAKU KABUSHIKI KAISHA, priority 2021, published 2024), this text covers IC50 for five compounds.

The target in this assay is protein-protein interaction between Kras and SOS1 (biotin-tagged human Kras loaded with GDP, His-tagged human SOS1) (Homo sapiens (Human), UniProt P01116, G12D). Put plainly: Protein-protein interaction inhibition between Kras and SOS1 (KrasG12D-SOS PPI) using AlphaScreen.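 Note: kras produced in E. coli, Ni-coupled donor beads and streptavidin acceptor beads, excitation 680 nm with emission detected at 520–620 nm via singlet oxygen transfer.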 In kind it is biochemical. As to conditions: AlphaScreen; biotin-tagged human Kras loaded with GDP, His-tagged human SOS1; read-out: KRAS G12D-SOS PPI IC50.
With `CC[C@H](C)[C@@H]1NC(=O)[C@H](CC(C)C)N(C)C(=O)C[C@@H](C(=O)N(C)C)N(C)C(=O)[C@H]([C@@H](C)CC)N(C)C(=O)C2(CCCC2)NC(=O)[C@H](Cc2ccccc2Cl)N(CC)C(=O)[C@H](CCc2ccc(C(F)(F)F)c(Cl)c2)NC(=O)CN(C)C(=O)[C@H](Cc2ccc(C)cc2)N(C)C(=O)[C@@H]2CCN2C(=O)[C@H](C)N(C)C1=O` [Compound 2165] ([NMeL]I[NMeA][Aze][NMePhe(4-Me)][Sar][hPhe(3-Cl-4-CF3)][NEtPhe(2-Cl)][Ac5c][NMeI][NMeD]-NMe2; lactam N-11), the pIC50 was 6.66.

For the compound `CC[C@H](C)[C@@H]1NC(=O)[C@H](C)N(C)C(=O)C[C@@H](C(=O)N2CCCCC2)N(C)C(=O)[C@H](C(C)C)N(C)C(=O)C2(CCCC2)NC(=O)[C@H](Cc2ccccc2Cl)N(CC)C(=O)[C@H](CCc2ccc(C(F)(F)F)c(Cl)c2)NC(=O)CN(C)C(=O)[C@H](Cc2ccc(C)cc2)N(C)C(=O)CN(C)C(=O)CN(C)C1=O` [Compound 2166] ([NMeA]I[Sar][Sar][NMePhe(4-Me)][Sar][hPhe(3-Cl-4-CF3)][NEtPhe(2-Cl)][Ac5c][NMeV][NMeD]-Piperidide; lactam N-11), the pIC50 was 6.48.

For `CC[C@H](C)[C@@H]1NC(=O)[C@H](C)N(C)C(=O)C[C@@H](C(=O)N2CCOCC2)N(C)C(=O)[C@H](C(C)C)N(C)C(=O)C2(CCCC2)NC(=O)[C@H](Cc2ccccc2Cl)N(CC)C(=O)[C@H](CCc2ccc(C(F)(F)F)c(Cl)c2)NC(=O)CN(C)C(=O)[C@H](CC2CCCCC2)N(C)C(=O)CN(C)C(=O)CN(C)C1=O` [Compound 2167] ([NMeA]I[Sar][Sar][NMeCha][Sar][hPhe(3-Cl-4-CF3)][NEtPhe(2-Cl)][Ac5c][NMeV][NMeD]-Morpholide; lactam N-11), the pIC50 is 6.42. The same measure for `CC[C@H](C)[C@@H]1NC(=O)[C@H](CC(C)C)N(C)C(=O)C[C@@H](C(=O)N2CCCCC2)N(C)C(=O)[C@H](C2CCCCC2)N(C)C(=O)C2(CCCC2)NC(=O)[C@H](CCOC)N(C)C(=O)[C@H](CCc2ccc(C(F)(F)F)c(Cl)c2)NC(=O)CN(C)C(=O)[C@H](CC2CCCCC2)N(C)C(=O)CN(C)C(=O)CN(C)C1=O` [Compound 2168] ([NMeL]I[Sar][Sar][NMeCha][Sar][hPhe(3-Cl-4-CF3)][NMehSer](Me)[Ac5c][NMeChg][NMeD]-Piperidide; lactam N-11): 8.89; for `CC[C@H](C)[C@@H]1NC(=O)[C@H](CC(C)C)N(C)C(=O)C[C@@H](C(=O)N2CCCCC2)N(C)C(=O)[C@H](C2CCCCC2)N(C)C(=O)C2(CCCC2)NC(=O)CN(CCN2CCN(C)CC2)C(=O)[C@H](CCc2ccc(C(F)(F)F)c(Cl)c2)NC(=O)CN(C)C(=O)[C@H](CC2CCCCC2)N(C)C(=O)CN(C)C(=O)CN(C)C1=O` [Compound 2180, (11S,17S,26S,29S,33S,36S)-11-[2-[3-chloro-4-(trifluoromethyl)phenyl]ethyl]-36-cyclohexyl-17-(cyclohexylmethyl)-29-isobutyl-15,18,21,24,30,34,37-heptamethyl-9-[2-(4-methylpiperazin-1-yl)ethyl]-26-[(1S)-1-methylpropyl]-33-(piperidine-1-carbonyl)-6,9,12,15,18,21,24,27,30,34,37-undecazaspiro[4.33]octatriacontane-7,10,13,16,19,22,25,28,31,35,38-undecone] ([NMeL]I[Sar][Sar][NMeCha][Sar][hPhe(3-Cl-4-CF3)][X38][Ac5c][NMeChg][NMeD]-Piperidide; lactam N-11): 9.03.
